# In patent US11498928B2, “Macrocyclic spiroethers as Mcl-1 inhibitors” (ASCENTAGE PHARMA (SUZHOU) CO., LTD., priority 2019, dated 2022):
# Like-named read-outs stand apart in the source and are kept apart here.
# What was measured:
# [1] = amide bond, T3P, DCM, 2.0 h
# [2] = target: T1, Mcl-1 protein (residues 171-323) (Homo sapiens, UniProt Q07820); experiment: Inhibition of Mcl-1 by fluorescence polarization (FP) competitive binding assay with FAM-Bid tracer; conditions: 2 nM FAM-Bid, 20 nM Mcl-1, 30 min
# T1 construct: Tag-free Mcl-1 protein (residues 171-323) was used in the FP assay
# How it was run: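 Tag-free Mcl-1 (20 nM) with 2 nM FAM-Bid peptide in PBS, 0.01% BGG, 0.01% Triton X-100, 5% DMSO, 30 min at room temperature. FP read at Ex 485/Em 528 nm. IC50 from 10-point curves normalised to DMSO and no-protein controls.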
# OPM-2 cells = experiment: Cell viability assay (OPM-2 cells), CCK-8; type: cell-based; conditions: Homo sapiens, OPM-2, 24 h, 5% FBS
# How it was run: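 OPM-2 myeloma cells (20000/well) exposed to serially diluted compound for 24 h at 37 °C, 5% CO2, then incubated 4 h with CCK-8 and read at 450 nm. Readings normalized to vehicle; IC50 from nonlinear regression.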
# NCI-H929 cells = experiment: Cell viability assay (NCI-H929 cells), CCK-8; type: cell-based; conditions: Homo sapiens, NCI-H929, 24 h, 5% FBS
# How it was run: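 NCI-H929 cells from ATCC were seeded at 20000 cells/well in 95 μL of culture medium in 96-well plates and grown for 4 hrs. Compounds, serially diluted in DMSO and further diluted in medium, were added as 5 μL, and cells were incubated for 24 hrs at 37° C. with 5% CO2. Viability was measured with CCK-8.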
# [3] = system: MV-4-11, NCI-H929 and OPM-2 xenografts; experiment: In vivo xenograft studies (subcutaneous tumor models); conditions: tumor-bearing mice, as compared to AMG-176
# Experimental: Female SCID mice at 4-6 weeks old were purchased from Shanghai Laboratory Animal Center (SLAC) and 1×10^7 MV-4-11 cells per mouse in 0.2 ml of PBS with 30% Matrigel were inoculated subcutaneously to the right flank of mice. Volumes of the tumor were estimated as V=LW^2/2, where L and W stand for tumor length and width. Mice with tumor at 50-150 mm^3 were randomized into treatment groups (5 mice per group) and started treatment. Compounds were administered at selected doses by p.o. or i.v. administration. The individual relative tumor volume (RTV) is calculated as following: RTV=Vt/V0, where Vt is the volume on each day of measurement and V0 is the volume on the initial day of treatment. Therapeutic effect of compound is expressed with relative tumor proliferation rate (T/C). The calculation formula is: T/C=mean RTV of the treated group/mean RTV of the control group. Treatments producing >20% lethality and/or 20% net body weight loss were considered toxic. Similar procedures were used in the for the NCI-H929 and OPM-2 xenograft experiments. See FIGS. 1, 3, 5, 7, 9, 11, and 13. Body weight changes in tumor-bearing mice were also measured. See FIGS. 2, 4, 6, 8, 10, 12, and 14.
# [4] = Pharmacokinetic studies in mice (IV and PO); type: in vivo; conditions: for MRT last: read-out: MRT0-last
# Experimental: Administration: Mice in the IV group was dosed at 2 mg/kg (20% PEG 400+10% Cremophor EL+70% PBS 7.4) via tail vein injection (N=9). Mice in the PO group was dosed at 10 mg/kg (20% PEG 400+10% Cremophor EL+70% PBS 7.4) via oral gavage (N=9). All the mice were fasted overnight before dosing and had free access to food 4 hr post dosing.
# Sampling: The animal was restrained manually at the designated time points (0.083, 0.25, 0.5, 1, 2, 4, 6, 8 and 24 hr), approximately 110 μL of blood sample was collected via retro-orbital puncture or cardiac puncture for terminal bleeding under the anesthesia with Isoflurane inhalation into K2EDTA tubes. The blood samples were maintained in wet ice first and centrifuged to obtain plasma (2000 g, 4° C., 5 min) within 15 minutes post sampling. All the plasma samples were stored at approximately −70° C. until analysis.
# T1 sequence (Q07820 171-323): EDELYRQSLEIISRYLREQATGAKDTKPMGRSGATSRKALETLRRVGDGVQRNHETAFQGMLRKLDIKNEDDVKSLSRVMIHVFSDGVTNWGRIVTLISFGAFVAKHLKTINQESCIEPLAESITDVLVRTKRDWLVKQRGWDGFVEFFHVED
compound,measurement,setting,value
CC(=O)O[C@H]1C2=C[C@@H](C2)[C@H](C)[C@@H](C)S(=O)(=O)NC(=O)c2ccc3c(c2)N(C[C@@H]2CC[C@H]21)C[C@@]1(CCCc2c1ccc(Cl)c2F)CO3,"ring closure, yield of all isomers","[1]; from CC(=O)O[C@@H](C1=C[C@H]([C@H](C)[C@@H](C)S(N)(=O)=O)C1)[C@@H]1CC[C@H]1CN1C[C@@]2(CCCc3c2ccc(Cl)c3F)COc2ccc(C(=O)O)cc21, TEA, 14.5 mM",100%
CO[C@@]1(C=O)C2=C[C@@H](C2)[C@H](C)[C@@H](C)S(=O)(=O)NC(=O)c2ccc3c(c2)N(C[C@@H]2CC[C@H]21)C[C@@]1(CCCc2c1ccc(Cl)c2F)CO3,"ring closure, yield of all isomers","[1]; from CO[C@@](C=O)(C1=C[C@H]([C@H](C)[C@@H](C)S(N)(=O)=O)C1)[C@@H]1CC[C@H]1CN1C[C@@]2(CCCc3c2ccc(Cl)c3F)COc2ccc(C(=O)O)cc21, DIPEA, DMAP, 6.4 mM, 0.0 °C",89%
CO[C@H]1C2=CC(C2)[C@H](C)CS(=O)(=O)NC(=O)c2ccc3c(c2)N(C[C@@H]2CC[C@H]21)C[C@@]1(CCCc2c1ccc(Cl)c2F)CS3 (some centres unmarked),"ring closure, yield of all isomers","[1]; from CO[C@@H](C1=CC([C@H](C)CS(N)(=O)=O)C1)[C@@H]1CC[C@H]1CN1C[C@@]2(CCCc3c2ccc(Cl)c3F)CSc2ccc(C(=O)O)cc21, Et3N, DMAP, 10.6 mM, 25.0 °C",26.4%
"CO[C@H]1C2=C[C@@H](C2)[C@H](C)[C@@H](C)S(=O)(=O)NC(=O)c2ccc3c(c2)N(C[C@@H]2CC[C@H]21)C[C@@]1(CCCc2c1ccc(Cl)c2F)CO3 (single isomer, unassigned) [Cpd. No. 17 (isomer 1)]",IC50,[2],8.1 nM
same,IC50,OPM-2 cells,62 nM
same,IC50,NCI-H929 cells,16 nM
same,body weight change (toxicity to the animals),[3],less body weight change
same,tumor growth inhibition,[3]; p.o. or i.v.,surprisingly better tumor growth inhibition
same,F,[4]; PO 10 mg/kg vs IV 2 mg/kg,92.9%
same,AUC(0-inf),"[4]; mouse, plasma, IV 2 mg/kg",15200 ng·h/mL
same,AUC(0-t),"[4]; mouse, plasma, IV 2 mg/kg",13900 ng·h/mL
same,clearance,"[4]; mouse, plasma, IV 2 mg/kg",2.18 mL/min/kg
same,half-life,"[4]; mouse, plasma, IV 2 mg/kg",7 h
same,Cmax,"[4]; mouse, plasma, IV 2 mg/kg, read-out: C0/Cmax (C0)",997 ng/mL
same,MRT last,"[4]; mouse, plasma, IV 2 mg/kg",6.7 h
same,Vd,"[4]; mouse, plasma, IV 2 mg/kg, read-out: Vss",1.2 L/kg
same,AUC(0-inf),"[4]; mouse, plasma, PO 10 mg/kg",70700 ng·h/mL
same,AUC(0-t),"[4]; mouse, plasma, PO 10 mg/kg",56000 ng·h/mL
same,Tmax,"[4]; mouse, plasma, PO 10 mg/kg",4 h
same,half-life,"[4]; mouse, plasma, PO 10 mg/kg",10.6 h
same,Cmax,"[4]; mouse, plasma, PO 10 mg/kg, read-out: C0/Cmax (Cmax)",4350 ng/mL
same,MRT last,"[4]; mouse, plasma, PO 10 mg/kg",8.3 h
same,Vd/F,"[4]; mouse, plasma, PO 10 mg/kg, read-out: Vz/F",2.2 L/kg
